These molecules were tested against Human 5-HT6 Receptor (Homo sapiens, UniProt P50406) (assay: Binding Assay for Human 5-HT6 Receptor ([3H]LSD radioligand)). Settings: 100 nM test compound; [3H]LSD 1.5 nM; human recombinant receptor in HEK293 cells.
Chain of Human 5-HT6 Receptor (P50406 whole entry): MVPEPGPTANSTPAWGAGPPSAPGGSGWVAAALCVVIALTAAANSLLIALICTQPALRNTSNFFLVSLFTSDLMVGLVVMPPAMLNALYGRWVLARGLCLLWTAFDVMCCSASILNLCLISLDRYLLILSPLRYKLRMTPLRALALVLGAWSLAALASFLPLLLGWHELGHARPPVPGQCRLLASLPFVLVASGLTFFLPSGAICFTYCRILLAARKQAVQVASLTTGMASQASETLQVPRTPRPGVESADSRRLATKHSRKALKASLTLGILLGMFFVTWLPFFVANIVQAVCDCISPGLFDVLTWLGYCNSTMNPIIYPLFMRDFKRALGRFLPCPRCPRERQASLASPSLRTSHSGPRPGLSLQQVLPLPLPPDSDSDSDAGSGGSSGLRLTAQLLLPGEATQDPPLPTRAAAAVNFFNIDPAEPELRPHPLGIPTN
Description: Receptor source: Human recombinant expressed in HEK293 cells
Radioligand: [^3H]LSD (60-80 Ci/mmol)
Final ligand concentration— [1.5 nM]
Non-specific determinant: Methiothepin mesylate— [0.1 μM]
Reference compound: Methiothepin mesylate
Positive control: Methiothepin mesylate
Reactions were carried out in 50 μM TRIS-HCl (pH 7.4) containing 10 μM MgCl2, 0.5 mM EDTA for 60 minutes at 37° C. The reaction was terminated by rapid vacuum filtration onto glass fiber filters. Radioactivity trapped onto the filters was determined and compared to control values in order to ascertain any interactions of test compound(s) with the cloned serotonin 5-HT6 binding site.
For CN1CCC(Nc2cc(NS(=O)(=O)c3ccc(F)cc3)ccc2Cl)CC1 [Example 2, 4-Fluoro-N-[4-Chloro-3-(1-methylpiperidin-4-ylamino)phenyl] benzenesulfonamide], the “% Inhibition at 100 nM” value was 69.45%. For Cc1ccc(S(=O)(=O)Nc2cccc(NC3CCN(C)CC3)c2)cc1 [Example 14, 4-Methyl-N-[3-(1-methylpiperidin-4-ylamino)phenyl] benzenesulfonamide], the “% Inhibition at 100 nM” value was 45.25%. With CN1CCC(Nc2cccc(NS(=O)(=O)c3ccc(F)cc3)c2)CC1 [Example 13, 4-Fluoro-N-[3-(1-methylpiperidin-4-ylamino)phenyl] benzenesulfonamide] the “% Inhibition at 100 nM” value was 34.95%. For Cc1ccc(S(=O)(=O)Nc2ccc(Cl)c(NC3CCN(C)CC3)c2)cc1 [Example 3, 4-Methyl-N-[4-Chloro-3-(1-methylpiperidin-4-ylamino)phenyl] benzenesulfonamide], the “% Inhibition at 100 nM” value was 78.66%. For COc1ccc(NS(=O)(=O)c2ccc(C)cc2)cc1NC1CCN(C)CC1 [Example 10, 4-Methyl-N-[4-Methoxy-3-(1-methylpiperidin-4-ylamino)phenyl] benzenesulfonamide], the “% Inhibition at 100 nM” value was 88.26%. CN1CCC(Nc2cc(NS(=O)(=O)c3ccccc3Br)ccc2Cl)CC1 [Example 5, 2-Bromo-N-[4-Chloro-3-(1-methylpiperidin-4-ylamino)phenyl] benzenesulfonamide] was tested, and the “% Inhibition at 100 nM” value was 93.8%. With Cc1ccc(NS(=O)(=O)c2ccc(F)cc2)cc1NC1CCN(C)CC1 [Example 17, 4-Fluoro-N-[4-Methyl-3-(1-Methylpiperidin-4-ylamino)phenyl] benzenesulfonamide] the “% Inhibition at 100 nM” value was 64.27%.

Same assay, conditions: 1000 nM test compound; [3H]LSD 1.5 nM; human recombinant receptor in HEK293 cells
For CN1CCC(Nc2cc(NS(=O)(=O)c3ccc(F)cc3)ccc2Cl)CC1 [Example 2, 4-Fluoro-N-[4-Chloro-3-(1-methylpiperidin-4-ylamino)phenyl] benzenesulfonamide], the “% Inhibition at 1000 nM” value was 96.73%. In the case of Cc1ccc(S(=O)(=O)Nc2cccc(NC3CCN(C)CC3)c2)cc1 [Example 14, 4-Methyl-N-[3-(1-methylpiperidin-4-ylamino)phenyl] benzenesulfonamide], the “% Inhibition at 1000 nM” value is reported as 80.78%. For CN1CCC(Nc2cccc(NS(=O)(=O)c3ccc(F)cc3)c2)CC1 [Example 13, 4-Fluoro-N-[3-(1-methylpiperidin-4-ylamino)phenyl] benzenesulfonamide], the “% Inhibition at 1000 nM” value was 71.2%. For Cc1ccc(S(=O)(=O)Nc2ccc(Cl)c(NC3CCN(C)CC3)c2)cc1 [Example 3, 4-Methyl-N-[4-Chloro-3-(1-methylpiperidin-4-ylamino)phenyl] benzenesulfonamide], the “% Inhibition at 1000 nM” value was 98.42%. For COc1ccc(NS(=O)(=O)c2ccc(C)cc2)cc1NC1CCN(C)CC1 [Example 10, 4-Methyl-N-[4-Methoxy-3-(1-methylpiperidin-4-ylamino)phenyl] benzenesulfonamide], the “% Inhibition at 1000 nM” value was 99.2%. With CN1CCC(Nc2cc(NS(=O)(=O)c3ccccc3Br)ccc2Cl)CC1 [Example 5, 2-Bromo-N-[4-Chloro-3-(1-methylpiperidin-4-ylamino)phenyl] benzenesulfonamide] the “% Inhibition at 1000 nM” value was 101.6%. Cc1ccc(NS(=O)(=O)c2ccc(F)cc2)cc1NC1CCN(C)CC1 [Example 17, 4-Fluoro-N-[4-Methyl-3-(1-Methylpiperidin-4-ylamino)phenyl] benzenesulfonamide] was tested, and the “% Inhibition at 1000 nM” value was 93.00%.

— patent US8404720B2, “Aryl sulfonamide amine compounds and their use as 5-HT6 ligands” (Suven Life Sciences Limited, priority 2008, dated 2013)
